In article PMC9519446, “Discovery of an Orally Active Benzoxaborole Prodrug Effective in the Treatment of Chagas Disease in Non-human Primates” (Nature microbiology, 2022):
Values joined by “and” are separate entries in the source; they are usually repeats but may differ in a detail not shown here. Equal entries are not always repeated. “Also recorded” adds a separate entry of the source. Marks after values point to notes of the source that are not given here.

Columns and labels:
[1] = NHP necropsy histology (lesions that could be consistent with Chagas); type: in vivo, rhesus macaques (Macaca mulatta); set-up: key to Skel mm, lesion grade / Small Int, lesion grade / Large Int, lesion grade / Heart, lesion grade: 0 (unlikely Chagas-related pathology); 5 (likely Chagas-related pathology); details: individual treated macaques T1-T9 at necropsy
Description: Under light-anesthesia/sedation, peripheral blood samples were collected from each animal prior to treatment and at 7 time points following. Blood analysis (CBC and serum chemistry assays) and physical exams to evaluate the health of the study animals were performed on each animal prior to the beginning of the study and also at three time points during the treatment protocol (see Supplementary data).

[2] = High dose 7-day toxicology study with exposure

Cc1c(C(=O)N[C@H](C(=O)OCC2CCOCC2)C(C)C)ccc2c1B(O)OC2 [AN15368]
Heart, lesion grade [1]: 1* and 0 and 2* and 3* | Histology Comments [1]: Heart- mutifocal areas of mild epicarditis; also recorded: No overt pathology identified; also recorded: Sk mm- mild focal area of neutrophilic and lymphocytic inflammation Small int- prominent villar tip necrosis/apoptosis, multifocal Lrg Int- focal area of mild lymphohistiocytic inflammation in muscularis; also recorded: Heart- Multifocal areas of mild lymphohistiocytic inflammation/myofiber loss; regional area of mild-moderate myocardial fibrosis; intravascular bacterial or fungal thrombus. Heart lesions are likely related to thromus/infection but Chagas can't be ruled out; also recorded: Sk mm- Multifocal areas of mild lymphohistiocytic inflammation and myofiber loss; Lrg Int- Mild diffsue lymphoplasmactic colitis; focal area of mild lymphohistiocytic inflammation in muscularis; also recorded: Heart - multiple foci of mild lymphoctic inflammation Sk mm-one section has acute myofiber degeneration (ketamine artifact) Small int- prominent villar tip necrosis/apoptosis, multifocal; also recorded: Heart- multifocal areas of mild to moderate myocardial, subepicardial, and perivascular lymphohistiocytic and plasmacytic inflammation; regional area of mild-moderate myocardial fibrosis | Large Int, lesion grade [1]: 0 and 1* | Skel mm, lesion grade [1]: 0 and 1* and 2* | Small Int, lesion grade [1]: 0 | dose proportionality of exposure ([2]; 7-day toxicology studies / rats): good dose proportional exposure | NOAEL dose translated by allometric scaling ([2]; humans): 19.4 mg/kg | NOAEL dose translated by allometric scaling ([2]; monkeys): 60.5 mg/kg | AUC(0-t) ([2]; rat, in vivo, 120 mg/kg/day, Total plasma exposure (AUC0-24 h), rats, 120 mg/kg/day (NOAEL dose)): 30000 ng·h/mL | AUC ([2]; rat, in vivo, 600 mg/kg): 256 µg·h/mL | NOAEL at 7 days ([2]; rat, in vivo, oral): 120 mg/kg | microscopic findings ([2]; rats): observed microscopically in liver (dose dependent), kidney | effects on hematology and clinical chemistry ([2]; rats, 120 mg/kg/day or lower): none | effects on hematology and clinical chemistry ([2]; rats, 150 mg/kg): modest effects | drug accumulation ([2]; rats, between the first and seventh days of the study): no evidence of drug accumulation
